The IC50 is the concentration at which inhibition is half-maximal. One may read the Ki as the dissociation constant of the complex between target and ligand, obtained from inhibition or displacement. The EC50 is the midpoint of the concentration-response curve.

The source of these data is paper PMC7216583 (Parasites & Vectors, 2020).

Where a name gives a salt, the structure may show the parent alone. Read-outs that look alike come from different tables or passages of the source.

The target in data set [1] is histamine 1 (H1) receptor. Set-up: method as in vendor brief description. Particulars: ref vendor brief description; cited from earlier work.
The test system of data set [2] is Toxoplasma gondii RH-2F tachyzoites. The data set can be described thus: microbe, parasite or virus in culture. Particulars: 72 h.
Data set [3] deals with H3-receptor. Set-up: method as in vendor brief description. To be noted: ref vendor brief description, cited from earlier work.
Data set [4] deals with endothelin receptor-A. Set-up: method as in vendor brief description. To be noted: ref vendor brief description; cited from earlier work.
Data set [5] has as its target N-methyl-D-aspartate (NMDA) receptor. Set-up: method as in vendor brief description. To be noted: ref vendor brief description; cited from earlier work.
Data set [6] has as its target mTOR. Set-up: method as in vendor brief description. To be noted: ref vendor brief description; cited from earlier work.
Data set [7] deals with TRPA1 channel. Set-up: method as in vendor brief description. Particulars: ref vendor brief description, cited from earlier work.
The target in data set [8] is epidermal growth factor receptor (EGFR). Set-up: method as in vendor brief description. To be noted: ref vendor brief description; read-out: IC50 EGFR; cited from earlier work.
Data set [9] relates to Kir2.1. Set-up: method as in vendor brief description. Particulars: ref vendor brief description, cited from earlier work.
The target of data set [10] is Bcl-2. Set-up: method as in library vendor description. Particulars: ref library vendor description; cited from earlier work.
Data set [11] has as its system Smoothened (Smo). Set-up: method as in S-inhibitor catalog. To be noted: vendor brief description; ref S-inhibitor catalog; cited from earlier work.
The subject of data set [12] is JAK1. Set-up: method as in vendor brief description. To be noted: ref vendor brief description; cited from earlier work.
The subject of data set [13] is ATR. Set-up: method as in vendor brief description. To be noted: ref vendor brief description; cited from earlier work.
The target in data set [14] is 5-HT3A. Set-up: method as in vendor brief description. Particulars: ref vendor brief description; cited from earlier work.
Data set [15] has as its system CXCR4. Set-up: method as in vendor brief description. To be noted: ref vendor brief description; cited from earlier work.
A short description of data set [16]: Side effects / survival of uninfected healthy mice. Format: in vivo, BALB/c mice. Particulars: healthy mice treated with compound, data not shown. How it is done: All mice were purchased from the Laboratory Animal Center, Wenzhou Medical University, Zhejiang, China. They were bred and handled in strict accordance with the Good Animal Practice requirements of the Animal Ethics Procedures and Guidelines of China. In a preliminary experiment aiming to assess the side effects of compounds, female BALB/c mice (6–8 weeks old, ~20 g) were orally administered with each compound at 50 mg/kg for 5 days and were monitored for 30 days. There was no obvious clinical toxicity after treatment with all compounds during this time period.

Data set [17] deals with T. gondii RH strain. The data set is described as follows: Murine model of acute toxoplasmosis: tissue parasite burden by B1 gene qPCR. Particulars: 7 dpi, 50 mg/kg oral for 5 days, n = 5, compared with vehicle control. In kind it is in vivo, BALB/c mice. On the procedure: Meanwhile, the parasite burden in the brain, liver and spleen of infected mice was measured at 7 dpi as described previously. Briefly, whole organs were mixed in lysis buffer (50 mM Tris pH 8.0, 50 mM EDTA, 1% SDS, 50 mg/ml of proteinase K) and incubated overnight at 56 °C. Total genomic DNA from 25 mg of tissue in 100 μl of lysis buffer was then extracted using DNeasy Blood and Tissue Kit (Qiagen, Shanghai, China) following the manufacturer’s instructions. […]. Amplification was performed in a final volume of 20 μl using a ChamQ Universal SYBR qPCR Master Mix (Cat# Q711-02; Vazyme, Nanjing, China). Each reaction contained 10 μl of 2× ChamQ SYBR qPCR Master Mix, 1 μl of template DNA, 8.2 μl of distilled water and 0.4 μM each primer. The following amplification conditions were applied: 30 s at 95 °C; 40 cycles of 95 °C for 10 s, 60 °C for 30 s; and one cycle of 95 °C for 15 s, 60 °C for 1 min and 95 °C for 15 s. The number of parasites was calculated from the standard curve prepared in parallel.

Data set [18] concerns Toxoplasma gondii RH-2F tachyzoites. Particulars: preliminary screen of compound library; mean.
The subject of data set [19] is Akt1. Set-up: method as in vendor brief description. To be noted: ref vendor brief description; cited from earlier work.
The mark [20] stands for this setting: read-out: Parasite inhibition (%) mean, preliminary screen of compound library, mean.

On to `O=C(O)CCCN1CCC(O[C@@H](c2ccc(Cl)cc2)c2ccccn2)CC1.O=S(=O)(O)c1ccccc1` [Bepotastine Besilate], for which the “pIC50 histamine 1 (H1) receptor” value in data set [1] is reported as “Bepotastine is a non-sedating, selective antagonist of histamine 1 (H1) receptor with pIC50 of 5.7”. In addition, the inhibition of growth at 5 µM in data set [2] (setting [20]) came to 50.1%.
For `CNCCc1ccccn1` [Betahistine 2HCl], the 50% inhibitory concentration (IC50) in data set [3] (read-out: IC50 histamine H3 receptors) was 1900 nM. For the same compound, in data set [2] (setting [20]), the inhibition of growth at 5 µM came to 3.2%.
With `COc1ccccc1Oc1c(NS(=O)(=O)c2ccc(C(C)(C)C)cc2)nc(-c2ncccn2)nc1OCCO` [Bosentan Hydrate], the Ki in [4] was […]. Also, the inhibition of growth at 5 µM in [2] (setting [20]) is 5.3%.
As to `O=C(c1ccc(OCCCc2cnc[nH]2)cc1)C1CC1` [Ciproxifan], the IC50 in data set [3] (read-out: IC50 H3-receptor) is 9.2 nM. In addition, the inhibition of growth at 5 µM in data set [2] (setting [20]) is 0.5%.
As to `C[C@]12N[C@H](Cc3ccccc31)c1ccccc12` [Dizocilpine (MK 801)], the Ki in data set [5] was 30.5 nM. In addition, the inhibition of growth at 5 µM in data set [2] (setting [20]) is 0.4%.
As to `CCNC(=O)Nc1ccc(-c2nc3c(c(N4CCOC[C@@H]4C)n2)CCN(C2COC2)C3)cc1` [GDC-0349], the inhibition constant Ki in data set [6] was 3.8 nM. Moreover, the inhibition of growth at 5 µM in data set [2] (setting [20]) was -13.8%.
Turning to `CC(C)c1ccc(NC(=O)Cn2cnc3c2c(=O)n(C)c(=O)n3C)cc1` [HC-030031], the half-maximal inhibitory concentration (IC50) in data set [7] (AITC-evoked, read-out: IC50 AITC-evoked calcium influx) was 6200 nM; in data set [7] (formalin-evoked, read-out: IC50 formalin-evoked calcium influx) it was 5300 nM. In addition, the inhibition of growth at 5 µM in data set [2] (setting [20]) turned out to be 1.6%.
Consider `CC(C)n1nc(-c2ccc3oc(N)nc3c2)c2c(N)ncnc21` [INK 128 (MLN0128)], for which the IC50 in [6] is 1 nM. In addition, the inhibition of growth at 5 µM in data set [2] (setting [20]) was 27.8%.
Turning to `C#Cc1cccc(Nc2ncnc3cc4c(cc23)OCCOCCOCCO4)c1` [Icotinib], the 50% inhibitory concentration (IC50) in data set [8] is 5 nM. Moreover, the inhibition of growth at 5 µM in [2] (setting [20]) amounted to 13.6%.
Take `COc1ccc(CNCc2cccc3ccccc23)cc1` [ML133 HCl]: the values for the IC50 in data set [9] (pH 7.4) and in data set [9] (pH 8.5) were 1800 nM and 290 nM, respectively. Moreover, the inhibition of growth at 5 µM in data set [2] (setting [20]) came out at 0.7%.
`COC1=CC(c2cc3ccccc3[nH]2)=N/C1=C\c1[nH]c(C)cc1C` [Obatoclax mesylate (GX15-070)]: the Ki in [10] was 220 nM. Moreover, the inhibition of growth at 5 µM in [2] (read-out: Parasite inhibition (%) mean, preliminary screen, mean) is 52.7%.
Turning to `Cc1cnc(-c2cc(N3CCN(C(=O)CCS(C)(=O)=O)CC3)ncc2Cl)c(C)c1` [PF-5274857], in data set [11], the 50% inhibitory concentration (IC50) is 5.8 nM and the inhibition constant (Ki) is 4.6 nM. Further, in [2] (setting [20]), the inhibition of growth at 5 µM was -0.8%.
On to `N#CC[C@@H](C1CCCC1)n1cc(-c2ncnc3[nH]ccc23)cn1` [S-Ruxolitinib], for which, in [12], the IC50 was […]. The inhibition of growth at 5 µM in data set [2] (setting [20]) amounted to 10.7%.
`CS(=O)(=O)c1ccc(-c2cnc(N)c(C(=O)Nc3ccccc3)n2)cc1` [VE-821]: in [13], the 50% inhibitory concentration (IC50) is 26 nM and the Ki is 13 nM. The inhibition of growth at 5 µM in data set [2] (setting [20]) is -7.9%.
With `CN1CCN(c2nc3ccccc3nc2Cl)CC1` [VUF 10166], the inhibition constant Ki in data set [14] was 0.04 nM. For the same compound, the inhibition of growth at 5 µM in data set [2] (setting [20]) worked out at 0.4%.
As for `c1ccc(NCc2ccc(CNc3ccccn3)cc2)nc1` [WZ 811], in data set [15], the half-maximal effective concentration (EC50) was 0.3 nM. For the same compound, the inhibition of growth at 5 µM in data set [2] (setting [20]) was -5.7%.
On to `CCc1nc(N)nc(N)c1-c1ccc(Cl)cc1` [pyrimethamine, Pyrimethamine], for which the “survival of healthy (uninfected) mice” value in [16] is “survived”. In [17], the “parasite burden in brain, liver and spleen” value is given as “lowest parasite burden in tissue”.
Consider AZD5363, for which the “Parasite inhibition (%) mean” value in data set [18] was determined as 33.4%. For the same compound, the IC50 in [19] is 3 nM.
